The values that follow come from patent publication US20220204457A1, “ARGININE GINGIPAIN INHIBITORS” (Cortexyme, Inc., priority 2019, published 2022).

Where only a bound is given, the exact number is not on record here.

For data set [1] the following is noted: oral administration of RTV 15 minutes prior to Kyt-36; from U.S. Pat. No. 9,758,473; cited from earlier work.
Another data set concerns the target T1, cathepsin F (Homo sapiens, UniProt Q9UBX1).
T1 sequence (Q9UBX1 271-484): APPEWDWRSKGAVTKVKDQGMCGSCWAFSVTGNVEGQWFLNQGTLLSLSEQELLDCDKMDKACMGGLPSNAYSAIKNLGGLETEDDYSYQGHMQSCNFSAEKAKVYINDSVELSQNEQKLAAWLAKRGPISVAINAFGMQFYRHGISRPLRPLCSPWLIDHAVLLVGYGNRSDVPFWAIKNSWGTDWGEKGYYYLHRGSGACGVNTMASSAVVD
As to the kind of experiment: cathepsin screen. The class given is biochemical.

The target of the next data set is T2, cathepsin H (Homo sapiens, UniProt P09668).
T2 sequence (P09668 98-335): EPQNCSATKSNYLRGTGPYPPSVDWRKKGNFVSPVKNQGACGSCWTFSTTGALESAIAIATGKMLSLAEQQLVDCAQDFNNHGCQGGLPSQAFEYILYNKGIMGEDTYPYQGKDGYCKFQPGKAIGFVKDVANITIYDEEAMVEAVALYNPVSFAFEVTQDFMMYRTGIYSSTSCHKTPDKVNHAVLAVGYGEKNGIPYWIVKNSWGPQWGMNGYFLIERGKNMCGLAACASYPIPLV
Put plainly: cathepsin screen. In kind it is biochemical.

For a further data set, the target named is cathepsin V (Homo sapiens, UniProt O60911). Put plainly: cathepsin screen. The class given is biochemical.
In a further data set the target is cathepsin L (Homo sapiens, UniProt P07711). As to the kind of experiment: cathepsin screen. The class given is biochemical.
A further data set deals with T3, cathepsin K (Homo sapiens, UniProt P43235).
T3 sequence (P43235 115-329): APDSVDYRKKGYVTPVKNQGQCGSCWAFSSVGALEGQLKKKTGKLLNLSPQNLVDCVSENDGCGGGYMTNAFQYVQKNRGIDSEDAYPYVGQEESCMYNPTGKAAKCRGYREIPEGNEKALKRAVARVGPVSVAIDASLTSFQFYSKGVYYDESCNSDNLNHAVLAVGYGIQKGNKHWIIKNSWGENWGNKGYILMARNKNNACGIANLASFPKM
Put plainly: cathepsin screen. In kind it is biochemical.

The target in a further data set is cathepsin S (Homo sapiens, UniProt P25774). As to the kind of experiment: cathepsin screen. In kind it is biochemical.
The next data set deals with cathepsin B (Homo sapiens, UniProt P07858). As to the kind of experiment: cathepsin screen. In kind it is biochemical. The method, then: The method can also be used to assay enzymes including Kgp, trypsin, and cathepsins such as cathepsin B. For Kgp, the substrate can be succinyl-Ala-Phe-Lys-AMC. For trypsin, the buffer can contain 10 mM Tris and 10 mM CaCl2 (pH 8.0), and the substrate can be Z-Gly-Gly-Arg-AMC. For cathepsin B, the buffer can contain 50 mM sodium phosphate, 1 mM EDTA, and 10 mM 2-mercaptoethanol (pH 6.25), and the substrate can be Z-Arg-Arg-AMC.

cathepsin L, sequence (P07711 114-333): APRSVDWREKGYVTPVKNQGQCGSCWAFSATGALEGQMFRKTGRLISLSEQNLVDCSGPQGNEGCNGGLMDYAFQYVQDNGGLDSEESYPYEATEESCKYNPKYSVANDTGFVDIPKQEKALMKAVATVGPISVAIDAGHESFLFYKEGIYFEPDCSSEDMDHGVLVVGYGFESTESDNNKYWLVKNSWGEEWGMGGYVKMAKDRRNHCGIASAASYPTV
cathepsin S, sequence (P25774 115-331): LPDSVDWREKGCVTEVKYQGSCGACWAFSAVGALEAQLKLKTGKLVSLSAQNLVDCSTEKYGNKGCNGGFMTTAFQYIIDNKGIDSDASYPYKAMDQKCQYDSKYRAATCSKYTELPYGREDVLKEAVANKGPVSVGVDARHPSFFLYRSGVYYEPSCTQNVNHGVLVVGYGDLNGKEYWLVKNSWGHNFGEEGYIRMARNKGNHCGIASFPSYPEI
cathepsin V, sequence (O60911 114-334): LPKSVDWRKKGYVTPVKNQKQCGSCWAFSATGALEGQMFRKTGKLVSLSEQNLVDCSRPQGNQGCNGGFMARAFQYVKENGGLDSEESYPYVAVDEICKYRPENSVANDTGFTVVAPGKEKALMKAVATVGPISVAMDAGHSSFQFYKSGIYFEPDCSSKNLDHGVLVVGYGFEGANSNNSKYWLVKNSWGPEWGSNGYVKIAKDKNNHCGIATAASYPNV

Take `CN(NC(=O)CC[C@H](NC(=O)OCc1ccccc1)C(=O)N[C@@H](CCCCN)C(=O)C(=O)NCc1ccccc1)c1ccccc1` [Kyt-36]: the half-life result in data set [1] is “increases the half-life”.

The term IC50 denotes the concentration that inhibits the measured activity by half. Low values mean greater potency in that assay, high ones weaker potency in that assay. `COC(C)(C)C(=O)N[C@@H](CCCNC(=N)N)C(=O)COC(C(F)(F)F)C(F)(F)F` [Compound 1, (S)-N-(6-guanidino-1-((1,1,1,3,3,3-hexafluoropropan-2-yl)oxy)-2-oxohexan-3-yl)-2-methoxy-2-methylpropanamide]: the IC50 against cathepsin F, at cathepsin H, against cathepsin V, at cathepsin L, against cathepsin K and against cathepsin S was greater than 10 µM throughout. Moreover, the IC50 on cathepsin B was greater than 10 µM.
